Reference: patent publication US7345070B2, “Peroxisome proliferator activated receptor agonists” (Eli Lilly and Company, priority 2000, dated 2008)

How the values were obtained:
huPPARγ [1] = target: T1, huPPARγ (Homo sapiens, UniProt P37231); assay: DNA-dependent binding (ABCD binding) using SPA technology, huPPARγ; conditions: SPA displacement of tritium-labeled PPARγ agonist radioligand
T1 sequence (P37231 1-505): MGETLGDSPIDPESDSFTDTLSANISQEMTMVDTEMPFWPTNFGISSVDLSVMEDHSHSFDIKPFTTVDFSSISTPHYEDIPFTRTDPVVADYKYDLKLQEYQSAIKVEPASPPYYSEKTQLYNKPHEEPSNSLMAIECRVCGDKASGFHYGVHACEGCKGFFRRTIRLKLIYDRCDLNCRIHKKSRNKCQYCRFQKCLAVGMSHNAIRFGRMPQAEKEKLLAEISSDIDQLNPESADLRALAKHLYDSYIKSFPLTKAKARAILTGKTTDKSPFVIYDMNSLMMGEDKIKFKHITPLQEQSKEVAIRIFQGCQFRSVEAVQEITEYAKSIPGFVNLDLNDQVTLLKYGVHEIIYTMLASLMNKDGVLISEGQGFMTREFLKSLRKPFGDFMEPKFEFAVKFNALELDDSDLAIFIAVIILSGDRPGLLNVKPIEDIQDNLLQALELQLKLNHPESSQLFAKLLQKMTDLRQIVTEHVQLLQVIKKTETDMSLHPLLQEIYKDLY
T1 sequence (P19793 1-462 partner): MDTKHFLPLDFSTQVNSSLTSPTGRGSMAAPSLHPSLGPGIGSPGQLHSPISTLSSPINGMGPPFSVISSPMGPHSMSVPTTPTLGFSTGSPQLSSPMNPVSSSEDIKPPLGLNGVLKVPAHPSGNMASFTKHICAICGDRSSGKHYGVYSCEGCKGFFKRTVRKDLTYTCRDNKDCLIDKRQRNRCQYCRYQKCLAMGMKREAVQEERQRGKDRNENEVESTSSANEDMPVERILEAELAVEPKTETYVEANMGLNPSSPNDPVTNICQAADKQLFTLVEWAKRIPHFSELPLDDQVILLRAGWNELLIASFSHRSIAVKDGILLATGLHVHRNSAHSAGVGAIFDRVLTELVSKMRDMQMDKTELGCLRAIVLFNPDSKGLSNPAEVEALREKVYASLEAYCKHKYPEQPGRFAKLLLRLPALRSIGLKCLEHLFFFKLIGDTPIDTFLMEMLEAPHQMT
Description: (§1) DNA-dependent binding (ABCD binding) was carried out using SPA technology with PPAR receptors. Tritium-labeled PPARα and PPARγ agonists were used as radioligands for generating displacement curves and IC50 values with compounds of the invention. Cotransfection assays were carried out in CV-1 cells. The reporter plasmid contained an acylCoA oxidase (AOX) PPRE and TK promoter upstream of the luciferase reporter cDNA. Appropriate PPARs and RXRα were constitutively expressed using plasmids containing the CMV promoter. […] In order to eliminate such interference, a GAL4 chimeric system was used in which the DNA binding domain of the transfected PPAR was replaced by that of GAL4, and the GAL4 response element was utilized in place of the AOX PPRE. Cotransfection efficacy was determined relative to PPARα agonist and PPARγ agonist reference molecules. Efficacies were determined by computer fit to a concentration-response curve, or in some cases at a single high concentration of agonist (10 μM). For binding or cotransfection studies with receptors other than PPARs, similar assays were carried out using appropriate ligands, receptors, reporter constructs, etc., for that particular receptor.
(§2) These studies were carried out to evaluate the ability of compounds of the invention to bind to and/or activate various nuclear transcription factors, particularly huPPARα (“hu” indicates “human”) and huPPARγ. These studies provide in vitro data concerning efficacy and selectivity of compounds of the invention. Furthermore, binding and cotransfection data for compounds of the invention were compared with corresponding data for marketed compounds that act on either huPPARα or huPPARγ.

huPPARα [2] = target: T2, huPPARα (Homo sapiens, UniProt Q07869); assay: DNA-dependent binding (ABCD binding) using SPA technology, huPPARα; conditions: SPA displacement of tritium-labeled PPARα agonist radioligand
T2 sequence (Q07869 1-468): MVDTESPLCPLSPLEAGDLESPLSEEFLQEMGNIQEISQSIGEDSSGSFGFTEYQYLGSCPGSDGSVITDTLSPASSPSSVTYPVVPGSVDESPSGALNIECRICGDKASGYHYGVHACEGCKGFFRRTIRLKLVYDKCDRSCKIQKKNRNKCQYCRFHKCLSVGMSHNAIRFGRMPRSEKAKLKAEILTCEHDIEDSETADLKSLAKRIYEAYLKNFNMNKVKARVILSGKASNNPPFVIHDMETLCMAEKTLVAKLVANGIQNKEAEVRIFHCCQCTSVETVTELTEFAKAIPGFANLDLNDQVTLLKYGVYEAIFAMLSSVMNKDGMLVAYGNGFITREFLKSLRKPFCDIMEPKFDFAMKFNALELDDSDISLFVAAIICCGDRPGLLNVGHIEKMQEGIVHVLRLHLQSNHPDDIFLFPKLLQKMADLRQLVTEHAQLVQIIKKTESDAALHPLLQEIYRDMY
T2 sequence (P19793 1-462 partner): T1 sequence (P19793 1-462 partner)
Description: as §1, §2

huPPARγ [3] = target: T1, huPPARγ; assay: Cotransfection assay in CV-1 cells, huPPARγ; type: cell-based; parameters: Appropriate PPARs and RXRα were constitutively expressed using plasmids containing the CMV promoter; expressed in transfected cells; host or cells: CV-1 cells; conditions: AOX PPRE luciferase reporter, relative to PPARγ agonist reference molecule; for Emax: read-out: huPPARγ CTF Efficacy
Description: as §1, §2

huPPARα [4] = assay: Cotransfection assay in CV-1 cells, huPPARα; type: cell-based, human; conditions: GAL4 chimeric system, relative to PPARα agonist reference molecule
Description: as §1, §2

HuapoAI transgenic mice = assay: Evaluation of triglyceride and cholesterol level in HuapoAI transgenic mice; type: in vivo; conditions: Mus musculus, 168 h; human apoAI transgenic mice, 30 mg/kg oral gavage daily for 7 days, FPLC area under the curve, over mice receiving vehicle; read-out: % HDLc Increase
Description: After an acclimation period of 2 weeks, animals were individually identified by ear notches, weighed, and assigned to groups based on body weight. Beginning the following morning, mice were dosed daily by oral gavage for 7 days using a 20 gauge, 1½″ curved disposable feeding needle (Popper & Sons). […] Prior to termination on day 7, mice were weighed and dosed. Three hours after dosing, animals were anesthetized by inhalation of isoflurane (2-4%; Abbott Laboratories, Chicago, Ill.) and blood obtained via cardiac puncture (0.7-1.0 ml). Whole blood was transferred to serum separator tubes (Vacutainer SST), chilled on ice, and permitted to clot. Serum was obtained after centrifugation at 4° C. and frozen until analysis for triglycerides, total cholesterol, compound levels, and serum lipoprotein profile by fast protein liquid chromatography (FPLC) coupled to an inline detection system. After sacrifice by cervical dislocation, the liver, heart and epididymal fat pads were excised and weighed.
The absorbance of the dye produced is linearly related to the analyte in the sample. The assays were further modified in our laboratory for use in a 96 well format. […] An additional aliquot of sample, pipetted to a third well and diluted in 200 μl water, provided a blank for each specimen. […] Sample absorbances were compared to a standard curve (100-800, 10-500, and 100-400 mg/dl for glucose, triglycerides and total cholesterol, respectively). […] All samples from an experiment were assayed at the same time to minimize inter-assay variability.
Serum lipoproteins were separated and cholesterol quantitated with an in-line detection system. Sample was applied to a Superose® 6 HR 10/30 size exclusion column (Amersham Pharmacia Biotech) and eluted with phosphate buffered saline-EDTA at 0.5 ml/min. […] The change in voltage corresponding to change in cholesterol concentration was plotted vs time and the area under the curve corresponding to the elution of VLDL, LDL and HDL was calculated using Perkin Elmer Turbochrome software.

Compound | IC50 (huPPARγ [1]) [nM] | IC50 (huPPARα [2]) [nM] | Emax (huPPARγ [3]) [%] | huPPARα CTF Efficacy (huPPARα [4]) [%] | change in vivo at 30 mg/kg (HuapoAI transgenic mice) [%] | huPPARγ CTF Efficacy (huPPARγ [3]) [%]
CCC(Cc1ccc(OCCc2nc(C3(C)CCCCC3)oc2C)cc1)(Oc1ccccc1)C(=O)O (stereo not drawn) [Example 49, 2-(4-{2-[5-Methyl-2-(1-methyl-cyclohexyl)-oxazol-4-yl]-ethoxy}-benzyl)-2-phenoxy-butyric acid] | 655 | 175 | 58 | 63 | 17 | –
Cc1oc(C2CCCCC2)nc1CCOc1ccc(CC(C)(Oc2ccc(Cl)cc2)C(=O)O)cc1 (stereo not drawn) [Example 31, 2-(4-Chlorophenoxy)-3-{4-[2-(2-cyclohexyl-5-methyl-oxazol-4-yl)-ethoxy]-phenyl}-2-methyl-propionic acid] | 19 | 53 | 73 | 63 | 114 | –
CC(C)(Oc1ccc(C(=O)c2ccc(Cl)cc2)cc1)C(=O)O [Fenofibric acid, reference compound] | – | – | – | 16 | – | 0
